Measured values from patent US12195464B2, “Lumateperone bis-tosylate salts and crystals and methods for manufacture thereof” (INTRA-CELLULAR THERAPIES, INC., priority 2018, dated 2025).

How the values were obtained:
[1] = salt of U.S. Pat. No. 7,183,282; cited from earlier work
[2] = salt of U.S. Pat. No. 7,183,282; cited from earlier work; remark: listed apart in the source
muscarinic = conditions: receptor associated with cognitive and metabolic side effects; cited from earlier work
[3] = free base form; cited from earlier work
[4] = solubility in organic solvents; assay type: physicochemical; conditions: free base, variety of organic solvents
NMDA and AMPA signaling = conditions: especially in the medial prefrontal cortex (mPFC); indirectly via D1 interaction; cited from earlier work
H1 histaminergic = H1 histaminergic (Homo sapiens, UniProt P35367); conditions: receptor associated with cognitive and metabolic side effects; cited from earlier work
H1 histaminergic, sequence (P35367 whole entry): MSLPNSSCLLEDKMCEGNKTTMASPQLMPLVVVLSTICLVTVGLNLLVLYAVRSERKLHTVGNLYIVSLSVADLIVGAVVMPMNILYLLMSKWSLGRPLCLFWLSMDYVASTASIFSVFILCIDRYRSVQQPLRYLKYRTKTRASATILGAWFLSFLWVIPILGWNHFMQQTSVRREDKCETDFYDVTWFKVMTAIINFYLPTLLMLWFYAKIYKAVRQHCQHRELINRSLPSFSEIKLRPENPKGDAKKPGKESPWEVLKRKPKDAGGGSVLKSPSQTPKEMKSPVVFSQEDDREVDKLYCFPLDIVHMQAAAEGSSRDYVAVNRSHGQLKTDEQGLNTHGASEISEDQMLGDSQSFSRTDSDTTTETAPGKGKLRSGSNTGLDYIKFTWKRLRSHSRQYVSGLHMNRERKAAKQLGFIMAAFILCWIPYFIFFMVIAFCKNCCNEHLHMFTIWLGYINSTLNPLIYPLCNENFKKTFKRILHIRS

5-HT2C = target: T1, 5-HT2C (Homo sapiens, UniProt P28335); conditions: receptor associated with cognitive and metabolic side effects; cited from earlier work
T1 sequence (P28335 33-458): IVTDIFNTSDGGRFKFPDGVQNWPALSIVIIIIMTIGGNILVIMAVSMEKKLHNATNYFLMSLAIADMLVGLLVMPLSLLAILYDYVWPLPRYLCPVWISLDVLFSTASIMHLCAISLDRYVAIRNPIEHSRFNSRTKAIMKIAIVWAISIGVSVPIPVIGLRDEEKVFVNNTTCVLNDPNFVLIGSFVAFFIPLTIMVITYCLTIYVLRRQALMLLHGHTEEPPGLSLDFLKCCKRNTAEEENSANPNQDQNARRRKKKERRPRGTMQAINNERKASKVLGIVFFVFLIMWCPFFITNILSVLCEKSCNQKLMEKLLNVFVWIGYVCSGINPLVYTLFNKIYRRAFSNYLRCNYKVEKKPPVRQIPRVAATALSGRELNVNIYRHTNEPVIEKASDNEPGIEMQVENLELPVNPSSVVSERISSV

| SMILES | stability (in words) [1] | hygroscopicity (in words) [2] | binding to muscarinic receptors (muscarinic) | aqueous solubility [3] | solubility in organic solvents [4] | NMDA and AMPA signaling in the brain (NMDA and AMPA signaling) | binding to H1 histaminergic receptor (H1 histaminergic) | binding to 5-HT2C receptor (5-HT2C) |
| --- | --- | --- | --- | --- | --- | --- | --- | --- |
| CN1CCN2c3c(cccc31)C1CN(CCCC(=O)c3ccc(F)cc3)CCC12.Cl (centres unmarked) [hydrochloride salt form of ITI-007] | poor stability | hygroscopic | – | – | – | – | – | – |
| CN1CCN2c3c(cccc31)[C@@H]1CN(CCCC(=O)c3ccc(F)cc3)CC[C@@H]12 [ITI-007, 4-((6bR,10aS)-3-methyl-2,3,6b,9,10,10a-hexahydro-1H-pyrido[3′,4′:4,5]pyrrolo[1,2,3-de]quinoxalin-8(7H)-yl)-1-(4-fluorophenyl)-1-butanone] | – | – | negligible binding | poor aqueous solubility | good solubility | enhanced | negligible binding | negligible binding |
